2 molecules from patent publication US10568923B2, “Plant parts and extracts having anticoccidial activity” (priority 2012, dated 2020) can be followed below.

Data set [1] deals with mixed culture of oocysts of the species E. tenella, E. acervulina and E. maxima. The data set can be described thus: In vivo challenge trial in broiler birds with mixed infection of coccidiosis (Examples 3, 10, 13). To be noted: Example 10, 11, 22 and 55 ppm.
Data set [2] deals with sporozoites of Eimeria tenella. The data set can be described thus: In vitro anti-sporozoite activity by MTT reduction assay. In kind it is cell-based. The note with it: peaks separated by semi-preparative HPLC; compared to crude powder in equivalent concentrations. As to the method:
Further, an in vitro method based on 3-(4,5-Dimethyl-2-thiazolyl)-2,5-diphenyl-2H-tetrazolium bromide (MTT) reduction assay was developed to evaluate the anti-sporozoite activity of plant extracts as a measure of the viability of the sporozoites. The optimized method included the preparation, sterilization and purification of sporozoites, followed by incubation of sporozoite suspension (minimum of 10^5 cells/ml) with required concentration of plant extract. The plant samples were prepared by mixing crude powder into a known volume of distilled water to achieve the specific ppm, vortexed for 2 min and filtered through a 0.2μ syringe filter. Following 24 h of incubation with the plant extracts, the sporozoites were thoroughly washed and then MTT assay was performed. MTT-PMS solution (0.2 millimolar each) is incubated with the sporozoite suspension (at 1:10 ratio) for 2 h at 41° C. […] The purple dye formazan is dissolved in 200 ul DMSO and the absorbance is measured at 530 nm against a reference wavelength of 630 nm.
Q. infectoria gall nut crude powder was fractionated using different solvent by column chromatography. The sample from each of the fractions was evaluated for their anti-sporozoite activity.
These four compounds were separated by semi-preparative HPLC and anti-sporozoite activity was evaluated in comparison to the crude powder in equivalent concentrations.

In data set [3] the test system is E. maxima (isolate ID NKL/11/Ac1). Put plainly: Example 14: in vivo anticoccidial trial in Cobb 400 broilers challenged with E. maxima. Also noted: species or system Eimeria maxima. To be noted: day 6 post challenge. The source says:
The trial was designed with 11 treatment groups with 2 replicates per groups and 12 male birds per replicate. The groups included (1) uninfected control, (2) infected control, (3) positive control groups supplemented with Salinomycin (Coxistac) at the recommended dosage, (4) treatment group treated with 20 and 50 g/ton of pure THB, (5) encapsulated THB at 46.3, 92.6 and 185.2 g/ton of feed, and (6) microemulsion of THB at 138.9, 277.8 and 416.7 g/ton of feed. […] The parameters evaluated were lesion scoring on day 6 post challenge and oocysts shedding on day 7 post-challenge.
The trial was conducted at the R & D poultry farm facility of Kemin Animal Nutrition and Health (India), Gummidipundi. Straight run commercial hybrid broiler chickens, Gallus domesticus (Var. Vencobb 400) were used for the study. Day old male chicks were procured from Shanthi hatcheries, Coimbatore, India. Birds were weighed and examined for general health at receipt. The birds were individually identified by wing bands. The chicks were housed in mild steel cages which were cleaned, disinfected using Virkon S (Du Pont, India) and painted earlier. The birds were provided with ad libitum feed and water. No water sanitizers or antimicrobial compounds were used in the water or in the feed. The experimental design is detailed in Table 13. As this was a preliminary study to evaluate the effect of encapsulated and microemulsion of THB in controlling coccidiosis only 2 replicates were maintained.
The birds were fed with either feed containing no anticoccidial agent, THB, encapsulated THB, microemulsion of THB or Salinomycin (Coxistac, Pfizer, India) incorporated in the feed from day 1. THB was obtained from J P N Pharma, Mumbai, India
The oocysts of E. maxima (isolate ID NKL/11/Ac1) that were maintained at the Department of Veterinary Parasitology, Madras Veterinary College, Chennai were used for the induction of coccidiosis in the trial birds. The origin of the isolate was a broiler bird with clinical coccidiosis, and they were propagated in vivo to yield oocyst quantities sufficient for the study. […]

Data set [4] has as its system E. tenella (Houghton strain). Put plainly: Example 1 screening trial: Q. infectoria in controlling caecal coccidiosis in broiler chickens. In kind it is in vivo, Eimeria tenella. To be noted: day 7 post infection; average of three replicates; Q. infectoria 100 g/ton feed, Coxistac 1000 g/ton. As to the method:
The screening trial was conducted at a poultry farm facility located in Gummidipundi, India. Straight run commercial hybrid broiler chickens, Gallus domesticus (Var. Vencobb 400) were used for the study. Day old male chicks were procured, weighed individually, wing banded, and randomly segregated into groups. The experimental design is detailed in Table 1.
The treated birds were fed with plant extract incorporated in the feed from day 1 (Table 2). The crude powders of Q. infectoria gall nut were procured from Pooja herbs, Mumbai, India. […]
The excreta of the birds were monitored daily from the day 1 post infection to day 10 for their consistency, presence of blood, mucus, undigested feed, and orange color. […]
The mortality of the birds was recorded on a daily basis and post mortem was carried out to confirm the cause of death.
On day 5 and 7 post infection, 2 birds from each of the groups were sacrificed by cervical dislocation and the intestine was cut open. The caeca of the birds were scored for coccidiosis lesions. […]
Triplicate samples of the excreta of the birds were collected randomly from the tray kept below the cages and the oocyst per gram was evaluated.

A short description of data set [5]: Example 15: compatibility with Tiamulin in commercial broilers (Ross 308), 42 days. In kind it is in vivo, Gallus domesticus (Var. Ross 308). To be noted: used in combination in feed of broilers. As for the experimental part: Experimental facility and study design. An in vivo trial was conducted at Ramadootha poultry farm, Hyderabad, India. Straight run commercial hybrid broiler chickens, Gallus domesticus (Var. Ross 308) were used for the study. Day old male chicks were procured from Suguna Broilers, India. The birds were weighed individually, wing banded, and randomly segregated into groups. The experimental design is detailed in Table 18.
Details of treatment groups. The treated birds were fed with supplements incorporated in the feed from day 1 (Table 22).
Parameters analyzed. The parameters that were chosen for analyses were body weight, feed conversion ratio (FCR) on a weekly basis, mortality and leg weakness on daily basis.
Mean body weight. Birds from each of the groups were removed and weighed individually every week to calculate the weight gain. The cumulative average weight gain of the 8 replicates of each of the group was taken as the mean weight/week.
Feed Conversion ratio (FCR). The total feed consumption was monitored regularly and FCR was arrived at by dividing the feed consumed per bird by the final weight per bird.
Mortality. Mortality was recorded on daily basis and the total mortality was calculated and expressed as %. […]
Leg weakness. All birds were examined every day for the major clinical signs, leg weakness which was scored on a 0 to 4 scale. […]

“Also recorded” adds a separate entry of the source.

In the case of `O=C(O)c1cc(O)c(O)c(O)c1` (single isomer, unassigned) [gallic acid, 3,4,5-trihydroxybenzoic acid], the “Dose response (lesion score, OPG)” value in data set [1] is “Dose dependent response was observed with no significant difference between gallic acid at 22 and 55 ppm”. For the same molecule, the “Lesion score for E. tenella, E. maxima and E. acervulina” value in data set [1] (day 5 post infection, vs infected control and Salinomycin) was “significant reduction in the score for all the three tested species”. The “Anti-sporozoite activity of the four major HPLC peaks (MTT)” value in data set [2] is “best anti-sporozoite activity”. For the same molecule, the “Lesion score (mid-gut)” value is recorded as “comparable efficacy” in data set [3] (pure THB at 25 and 50 ppm); “significant improvement in lesions scores when compared to the positive control” in data set [3] (pure THB at 25 and 50 ppm, listed as THB).

For `CC[C@@H](C(=O)[C@@H](C)[C@@H](O)[C@H](C)[C@@H]1O[C@@H]([C@@H](CC)C(=O)O)CC[C@@H]1C)[C@H]1O[C@]2(C=C[C@@H](O)[C@]3(CC[C@@](C)([C@H]4CC[C@](O)(CC)[C@H](C)O4)O3)O2)[C@H](C)C[C@@H]1C` [Salinomycin, reference compound], the “Average Oocysts Per Gram Excreta” value in data set [4] is “did not show any indication of reduction of oocysts”. In data set [3] (Coxistac at 500 g/ton of feed, vs infected control), the “Lesion score (mid-gut)” value is listed as “no significant reduction; also recorded: showed a reduction in lesion scores”. Further, the “Compatibility with Tiamulin” value in data set [5] is “indicates interaction”.
